± gives the standard deviation of the averaged measurements.
Legend:
DECITABINE = compound: Nc1ncn([C@H]2C[C@H](O)[C@@H](CO)O2)c(=O)n1 [DECITABINE]; experiment: area under dose-response curve of surviving fraction (unscaled, Aref=0) (surviving fraction x log10(nM)); higher = more resistant; conditions: exposure time: 5 days; dose range 0.5-1000 nM
How it was run: (§1)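 Inhibitor was applied to tumour cell lines at eight concentrations (0.5 to 1000 nM) for five days in 384-well plates. Luminescence from CellTiter-Glo, scaled to DMSO-only wells, gave surviving fractions in three screens per line, and these were fitted by 3-parameter logistic regression with the drc R package. The area under the curve is an unscaled activity area. Aref was 0, and dose was on a log10 scale.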

LAPATINIB = compound: CS(=O)(=O)CCNCc1ccc(-c2ccc3ncnc(Nc4ccc(OCc5cccc(F)c5)c(Cl)c4)c3c2)o1 [LAPATINIB]; experiment: as above; conditions: exposure time: 5 days; dose range 0.5-1000 nM
How it was run: as §1

ABT-737 = compound: CN(C)CC[C@H](CSc1ccccc1)Nc1ccc(S(=O)(=O)NC(=O)c2ccc(N3CCN(Cc4ccccc4-c4ccc(Cl)cc4)CC3)cc2)cc1[N+](=O)[O-] [ABT-737]; experiment: as above; conditions: exposure time: 5 days; dose range 0.5-1000 nM
How it was run: as §1

FLAVOPIRIDOL = compound: CN1CC[C@H](c2c(O)cc(O)c3c(=O)cc(-c4ccccc4Cl)oc23)[C@H](O)C1 [FLAVOPIRIDOL]; experiment: as above; conditions: exposure time: 5 days; dose range 0.5-1000 nM
How it was run: as §1

RESVERATROL = compound: Oc1ccc(/C=C/c2cc(O)cc(O)c2)cc1 [RESVERATROL]; experiment: as above; conditions: exposure time: 5 days; dose range 0.5-1000 nM
How it was run: as §1

2-METHOXYESTRADIOL = compound: COc1cc2c(cc1O)CC[C@@H]1[C@@H]2CC[C@]2(C)[C@@H](O)CC[C@@H]12 [2-METHOXYESTRADIOL]; experiment: as above; conditions: exposure time: 5 days; dose range 0.5-1000 nM
How it was run: as §1

VISMODEGIB = compound: CS(=O)(=O)c1ccc(C(=O)Nc2ccc(Cl)c(-c3ccccn3)c2)c(Cl)c1 [VISMODEGIB]; experiment: surviving fraction relative to DMSO-only wells; higher = less growth inhibition; conditions: exposure time: 5 days
How it was run: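 Inhibitors at 0.5, 1, 5, 10, 50, 100, 500 and 1000 nM were applied continuously for five days to tumour cell lines seeded in log phase at 250–500 cells per well in 384-well plates 24 hours earlier. Viability was measured by CellTiter-Glo luminescence and expressed as surviving fraction relative to the median of DMSO-only wells. Luminescence was taken after 10 minutes at room temperature.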

Row | Test System | area under dose-response curve (DECITABINE) | area under dose-response curve (LAPATINIB) | area under dose-response curve (ABT-737) | area under dose-response curve (FLAVOPIRIDOL) | area under dose-response curve (RESVERATROL) | area under dose-response curve (2-METHOXYESTRADIOL) | surviving fraction (VISMODEGIB; 0.5 nM) | surviving fraction (VISMODEGIB; 1 nM) | surviving fraction (VISMODEGIB; 5 nM) | surviving fraction (VISMODEGIB; 10 nM) | surviving fraction (VISMODEGIB; 50 nM) | surviving fraction (VISMODEGIB; 100 nM) | surviving fraction (VISMODEGIB; 500 nM) | surviving fraction (VISMODEGIB; 1000 nM)
1 | CCK81 LARGE INTESTINE | 1.69 | 1.95 | 2.64 | 1.69 | 2.47 | 2.32 |  |  |  |  |  |  |  | 
2 | G292 BONE | 2.61 | 3.3 | 3.45 | 2.14 | 3.42 | 2.87 | 0.963 ± 0.032 | 0.989 ± 0.018 | 1.01 ± 0.057 | 0.96 ± 0.016 | 0.959 ± 0.049 | 0.975 ± 0.019 | 0.927 ± 0.061 | 0.932 ± 0.014
3 | HCC38 BREAST | 2.64 | 3 |  | 2.36 |  |  | 0.743 ± 0.17 | 0.928 ± 0.2 | 0.895 ± 0.31 | 1.12 ± 0.38 | 0.668 ± 0.12 | 0.677 ± 0.24 | 0.743 ± 0.24 | 0.609 ± 0.11
4 | HCC70 BREAST |  | 3.58 | 3.49 | 2.16 | 3.59 | 3.06 | 0.977 ± 0.041 | 0.964 ± 0.067 | 1.14 ± 0.055 | 1.11 ± 0.012 | 1.11 ± 0.084 | 1.12 ± 0.048 | 1.04 ± 0.037 | 1.1 ± 0.026
5 | HMLE3 BREAST | 2.98 |  | 3.75 | 2.14 | 3.42 | 3.23 | 0.911 ± 0.11 | 0.929 ± 0.037 | 1 ± 0.03 | 0.949 ± 0.013 | 0.882 ± 0.096 | 0.969 ± 0.038 | 0.882 ± 0.15 | 0.893 ± 0.11
6 | HMT3552 BREAST | 3.71 | 3.24 | 3.5 | 1.86 | 3.64 | 2.95 | 1.07 | 1.02 | 1.05 | 1.06 | 0.804 | 1.16 | 0.925 | 0.937
7 | HS57T BREAST |  |  |  |  |  |  | 0.986 ± 0.066 | 0.987 ± 0.04 | 1.01 ± 0.062 | 1.04 ± 0.055 | 1.04 ± 0.028 | 0.959 ± 0.038 | 0.991 ± 0.037 | 0.978 ± 0.021
8 | HS578T BREAST | 2.99 | 3.34 | 3.8 | 2.13 | 3.82 | 2.71 | 0.936 ± 0.14 | 0.934 ± 0.077 | 1.05 ± 0.062 | 0.964 ± 0.069 | 0.871 ± 0.11 | 0.881 ± 0.051 | 0.913 ± 0.15 | 0.983 ± 0.15

From the supplement of paper PMC6045584
